# Laboratory results as given in patent publication US20230266302A1, “SYNTHESIS AND USE OF N-BENZYL SULFONAMIDES” (THE UNIVERSITY OF TULSA, priority 2020, published 2023).
# Columns and labels:
# Assay in all cases: ATP level assay (CellTiter-Glo), percent of control
# Format in all cases: cell-based
# [1] = test system: BxPC3 (pancreatic cancer); settings: two hour incubation; for activity at 100 µM: Homo sapiens, BXPC-3, 2 h, compound alone, control DMSO, read-out: POC (percent of control) BxPC3
# H293 (kidney cancer) = settings: two hour incubation; for activity at 100 µM: 2 h, compound alone, control DMSO, read-out: POC (percent of control) H293
# HDF (normal cells) = settings: two hour incubation; for activity at 100 µM: 2 h, compound alone, control DMSO, read-out: POC (percent of control) HDF
# HeLa (cervical cancer) = settings: two hour incubation; for activity at 100 µM: Homo sapiens, HeLa, 2 h, compound alone, control DMSO, read-out: POC (percent of control) HeLa
# [2] = test system: MCF10A (non-cancerous breast); settings: two hour incubation; for activity at 100 µM: Homo sapiens, MCF-10A, 2 h, compound alone, control DMSO, read-out: POC (percent of control) MCF10A
# MCF7 (breast cancer) = settings: two hour incubation; for activity at 100 µM: Homo sapiens, MCF7, 2 h, compound alone, control DMSO, read-out: POC (percent of control) MCF7
# MDA-MB (breast cancer) = settings: two hour incubation; for activity at 100 µM: 2 h, compound alone, control DMSO, read-out: POC (percent of control) MDA-MB
# NCI-H196 (lung cancer) = settings: two hour incubation; for activity at 100 µM: NCI-H196, 2 h, compound alone, control DMSO, read-out: POC (percent of control) NCI-H196
# PC3 (prostate cancer) = settings: two hour incubation; for activity at 100 µM: 2 h, compound alone, control DMSO, read-out: POC (percent of control) PC3
# SkBr3 (breast cancer) = settings: two hour incubation; for activity at 100 µM: Homo sapiens, SK-BR-3, 2 h, compound alone, control DMSO, read-out: POC (percent of control) SkBr3
# T47D (breast cancer) = settings: two hour incubation; for activity at 100 µM: Homo sapiens, T47D, 2 h, compound alone, control DMSO, read-out: POC (percent of control) T47D
# [3] = compound 100 uM + 2DG (about 10-20 mM)
# [4] = compound 100 uM + rotenone (approximately 1.25 μM)
SMILES,activity at 100 µM [1] [%],"POC (percent of control) BxPC3 [1, 3]","POC (percent of control) BxPC3 [1, 4]",activity at 100 µM (H293 (kidney cancer)) [%],POC (percent of control) H293 (H293 (kidney cancer); [3]),POC (percent of control) H293 (H293 (kidney cancer); [4]),activity at 100 µM (HDF (normal cells)) [%],POC (percent of control) HDF (HDF (normal cells); [3]),POC (percent of control) HDF (HDF (normal cells); [4]),activity at 100 µM (HeLa (cervical cancer)) [%],POC (percent of control) HeLa (HeLa (cervical cancer); [3]),POC (percent of control) HeLa (HeLa (cervical cancer); [4]),activity at 100 µM [2] [%],"POC (percent of control) MCF10A [2, 3]","POC (percent of control) MCF10A [2, 4]",activity at 100 µM (MCF7 (breast cancer)) [%],POC (percent of control) MCF7 (MCF7 (breast cancer); [3]),POC (percent of control) MCF7 (MCF7 (breast cancer); [4]),activity at 100 µM (MDA-MB (breast cancer)) [%],POC (percent of control) MDA-MB (MDA-MB (breast cancer); [3]),also measured
"Cn1cc(CNS(=O)(=O)c2ccc(Cl)cc2)cn1 [Compound 11, 4-chloro-N-[(1-methyl-1H-pyrazol-4-yl)methyl]benzenesulfonamide]",99.2,83.8% of control,78% of control,92.8,87.4% of control,88.3% of control,77.4,101.3% of control,89.8% of control,103,117.6% of control,96.4% of control,95.4,95.8% of control,93.7% of control,118,98.4% of control,94.6% of control,95.3,82.4% of control,POC (percent of control) MDA-MB (MDA-MB (breast cancer); [4]): 97.9% of control; activity at 100 µM (NCI-H196 (lung cancer)): 95.2%; POC (percent of control) NCI-H196 (NCI-H196 (lung cancer); [3]): 114.7% of control; POC (percent of control) NCI-H196 (NCI-H196 (lung cancer); [4]): 88.9% of control; activity at 100 µM (PC3 (prostate cancer)): 113%; POC (percent of control) PC3 (PC3 (prostate cancer); [3]): 94.6% of control; POC (percent of control) PC3 (PC3 (prostate cancer); [4]): 96.1% of control; activity at 100 µM (SkBr3 (breast cancer)): 101%; POC (percent of control) SkBr3 (SkBr3 (breast cancer); [3]): 99.7% of control; POC (percent of control) SkBr3 (SkBr3 (breast cancer); [4]): 95.3% of control; activity at 100 µM (T47D (breast cancer)): 59.3%; POC (percent of control) T47D (T47D (breast cancer); [3]): 90.4% of control; POC (percent of control) T47D (T47D (breast cancer); [4]): 99.6% of control
"COc1ncccc1CNS(=O)(=O)c1ccc(C)cc1 [Compound 12, N-[(2-methoxypyridin-3-yl)methyl]-4-methylbenzenesulfonamide]",79.8,57% of control,61% of control,94.4,85% of control,74.9% of control,77.8,90.9% of control,70.4% of control,98,78.5% of control,87.6% of control,98.6,88.1% of control,86.1% of control,97.3,90.8% of control,92.1% of control,87.2,83.9% of control,POC (percent of control) MDA-MB (MDA-MB (breast cancer); [4]): 105.7% of control; activity at 100 µM (NCI-H196 (lung cancer)): 83.5%; POC (percent of control) NCI-H196 (NCI-H196 (lung cancer); [3]): 117% of control; POC (percent of control) NCI-H196 (NCI-H196 (lung cancer); [4]): 81.8% of control; activity at 100 µM (PC3 (prostate cancer)): 82.1%; POC (percent of control) PC3 (PC3 (prostate cancer); [3]): 89.9% of control; POC (percent of control) PC3 (PC3 (prostate cancer); [4]): 80.3% of control; activity at 100 µM (SkBr3 (breast cancer)): 91.6%; POC (percent of control) SkBr3 (SkBr3 (breast cancer); [3]): 73.5% of control; POC (percent of control) SkBr3 (SkBr3 (breast cancer); [4]): 85.1% of control; activity at 100 µM (T47D (breast cancer)): 59.8%; POC (percent of control) T47D (T47D (breast cancer); [3]): 58.1% of control; POC (percent of control) T47D (T47D (breast cancer); [4]): 95.2% of control
